Experiments:
[1] = system: HCV Con1 subgenomic replicon (GS4.1 cells); assay: HCV replicon assay (NS5A ELISA, 72 hrs); format: cell-based; settings: Hepatitis C virus
Protocol: Huh-7 cells containing HCV Con1 subgenomic replicon (GS4.1 cells) were grown in Dulbecco's Modified Eagle Medium (DMEM) supplemented with 10% fetal bovine serum (FBS), 2 mM L-glutamine, 110 mg/L sodium pyruvate, 1× non-essential amino acids, 100 U/mL penicillin-streptomycin, and 0.5 mg/mL G418 (Invitrogen). For dose-response testing, the cells were seeded in 96-well plates at 7.5×10^3 cells/well in a volume of 50 μL, and incubated at 37° C./5% CO2. Three hours after plating, 50 μL often 2-fold serial dilutions of compounds (highest concentration, 75 μM) were added, and cell cultures were incubated at 37° C./5% CO2 in the presence of 0.5% DMSO. Alternatively, compounds were tested at a single concentration of 15 μM. In all cases, Huh-7 cells lacking the HCV replicon served as negative control. The cells were incubated in the presence of compounds for 72 hrs after which they were monitored for expression of the NS5A protein by enzyme-linked immunosorbent assay (ELISA). For this, the plates were then fixed for 1 min with acetone/methanol (1:1, v/v), washed twice with phosphate-buffered saline (PBS), 0.1% Tween 20, blocked for 1 hr at room temperature with TNE buffer containing 10% FBS and then incubated for 2 hr at 37° C. with the anti-NS5A mouse monoclonal antibody A-236 (ViroGen) diluted in the same buffer. After washing three times with PBS, 0.1% Tween 20, the cells were incubated 1 hr at 37° C. with anti-mouse immunoglobulin G-peroxidase conjugate in TNE, 10% FBS. After washing as described above, the reaction was developed with O-phenylenediamine (Zymed). The reaction was stopped after 30 min with 2 NH2SO4, and absorbance was read at 492 nm using Sunrise Tecan spectrophotometer. EC50 values were determined from the % inhibition versus concentration data using a sigmoidal non-linear regression analysis based on four parameters with Tecan Magellan software.

in vitro = format: cell-based; settings: human; GS4.1 cells, cellular viability
Protocol: For cytotoxicity evaluation, GS4.1 cells were treated with compounds as described above and cellular viability was monitored using the Cell Titer 96 AQeous One Solution Cell Proliferation Assay (Promega). CC50 values were determined from the % cytotoxicity versus concentration data with Tecan Magellan software as described above.

SMILES	EC50 [1]	CC50 (in vitro)
COC(=O)N[C@H](C(=O)N1CCC[C@H]1c1ncc(-c2ccc(-c3cn4cc(NC(=O)[C@@H]5CCCN5C(=O)[C@H](NC(=O)OC(C)(C)C)c5ccccc5)nc4s3)cc2)[nH]1)C(C)C [Compound A1, (S,S,S,R)-[1-(2-{5-[4-(6-{[1-(2-tert-butoxycarbonylamino-2-phenyl-acetyl)-pyrrolidine-2-carbonyl]-amino}imidazo[2,1-b]thiazol-2-yl)-phenyl]-1H-imidazol-2-yl}pyrrolidine-1-carbonyl)-2-methyl-propyl]-carbamic acid methyl ester]	< 0.001 µM	> 75 µM
COC(=O)N[C@H](C(=O)N1CCC[C@H]1C(=O)Nc1cn2cc(-c3ccc(-c4cnc([C@@H]5CCCN5C(=O)[C@@H](NC(=O)OC)C(C)C)[nH]4)cc3)sc2n1)C(C)C [Compound A2, (S,S,S,S)-(1-{2-[2-(4-{2-[1-(2-methoxycarbonylamino-3-methyl-butyryl)-pyrrolidin-2-yl]-3H-imidazol-4-yl}-phenyl)-imidazo[2,1-b]thiazol-6-ylcarbamoyl]-pyrrolidine-1-carbonyl}-2-methyl-propyl)-carbamic acid methyl ester]	0.001 to 0.01 µM	10 to 75 µM
COC(=O)N[C@H](C(=O)N1CCCC1c1ncc(-c2cn3cc(-c4ccc(-c5cnc([C@@H]6CCCN6C(=O)[C@@H](NC(=O)OC)C(C)C)[nH]5)cc4)nc3s2)[nH]1)C(C)C (stereo partly shown) [Compound A7]	< 0.001 µM	> 75 µM
CC(C)(C)OC(=O)N[C@@H](C(=O)N1CCOC[C@H]1C(=O)Nc1cn2cc(-c3ccccc3)sc2n1)c1ccccc1 [Compound A22]	> 0.1 µM	> 75 µM
CC(C)(C)OC(=O)N[C@@H](C(=O)N1CCC[C@H]1C(=O)Nc1cn2cc(C#Cc3ccccc3)sc2n1)c1ccccc1 [Compound A23]	> 0.1 µM	10 to 75 µM
CC(C)(C)OC(=O)N[C@@H](C(=O)N1CCC[C@H]1C(=O)Nc1cn2cc(-c3ccccc3)sc2n1)c1ccccc1 [Compound A27]	0.01 to 0.1 µM	> 75 µM
CC(C)(C)OC(=O)Nc1ccc(-c2cn3cc(NC(=O)[C@@H]4CCCN4C(=O)[C@H](NC(=O)OC(C)(C)C)c4ccccc4)nc3s2)cc1 [Compound A29]	> 0.1 µM	10 to 75 µM
COC(=O)N[C@H](C(=O)N1CCC[C@H]1c1ncc(-c2ccc(-c3cn4cc(NC(=O)[C@@H]5CCCN5C(=O)[C@H](NC(=O)OC)c5ccccc5)nc4s3)cc2)[nH]1)C(C)C [Compound A30, (S,S,S,R)-[1-(2-{5-[4-(6-{[1-(2-methoxycarbonylamino-2-phenyl-acetyl)-pyrrolidin-2-carbonyl]-amino}-imidazo[2,1-b]thiazol-2-yl)-phenyl]-1H-imidazol-2-yl}-pyrrolidine-1-carbonyl)-2-methyl-propyl]-carbamic acid methyl ester]	< 0.001 µM	> 75 µM
COC(=O)N[C@H](C(=O)N1CCC[C@H]1c1ncc(-c2ccc(-c3cn4cc(NC(=O)C5CCCN5C(=O)CNC(=O)OC(C)(C)C)nc4s3)cc2)[nH]1)C(C)C (stereo partly shown) [Compound A31]	0.01 to 0.1 µM	> 75 µM
COC(=O)N[C@H](C(=O)N1CCC[C@H]1C(=O)Nc1ccc(-c2cn3cc(NC(=O)C4CCCN4C(=O)[C@@H](NC(=O)OC)C(C)C)nc3s2)cc1)c1ccccc1 (stereo partly shown) [Compound A32]	< 0.001 µM	> 75 µM
COC(=O)N[C@H](C(=O)N1CCC[C@H]1c1ncc(-c2ccc(-c3cn4cc(-c5cnc(C6CCCN6C(=O)[C@@H](NC(=O)OC(C)(C)C)c6ccccc6)[nH]5)nc4s3)cc2)[nH]1)C(C)C (stereo partly shown) [Compound A33]	< 0.001 µM	> 75 µM
COC(=O)N[C@H](C(=O)N1CCC[C@H]1C(=O)Nc1ccc(-c2cn3cc(NC(=O)OC(C)(C)C)nc3s2)cc1)C(C)C [Compound A34]	0.001 to 0.01 µM	10 to 75 µM
COC(=O)N[C@H](C(=O)N1CCCC1c1ncc(-c2ccc(-c3csc4c(-c5cnc(C6CCCN6C(=O)OCc6ccccc6)[nH]5)csc34)cc2)[nH]1)C(C)C (stereo partly shown) [Compound A49]	< 0.001 µM	> 75 µM
CCOC(=O)N[C@@H](C(=O)N1CCC[C@H]1C(=O)Nc1cn2cc(-c3ccc(-c4cnc([C@@H]5CCCN5C(=O)[C@@H](NC(=O)OC)C(C)C)[nH]4)cc3)sc2n1)c1ccccc1 [Compound A55, (S,S,S,R)-[1-(2-{5-[4-(6-{[1-(2-ethoxycarbonylamino-2-phenylacetyl)-pyrrolidine-2-carbonyl]-amino}imidazo[2,1-b]thiazol-2-yl)-phenyl]-1H-imidazol-2-yl}pyrrolidine-1-carbonyl)-2-methyl-propyl]-carbamic acid methyl ester]	< 0.001 µM	10 to 75 µM
COC(=O)N[C@H](C(=O)N1CCC[C@H]1c1ncc(-c2ccc(-c3cn4cc(NC(=O)[C@@H]5CCCN5C(=O)[C@H](NC(=O)OC(C)C)c5ccccc5)nc4s3)cc2)[nH]1)C(C)C [Compound A56]	< 0.001 µM	> 75 µM
COC(=O)NC(C(=O)N1CCCC1c1ncc(-c2cn3cc(-c4ccc(-c5cnc([C@@H]6CCCN6C(=O)[C@H](NC(=O)OC)c6ccccc6)[nH]5)cc4)nc3s2)[nH]1)c1ccccc1 (stereo partly shown) [Compound A60]	< 0.001 µM	> 75 µM
COC(=O)N[C@H](C(=O)N1CCCC1c1ncc(-c2ccc(-c3csc4c(-c5cnc(C6CCCN6C(=O)[C@@H](NC(=O)OC(C)(C)C)C(C)C)[nH]5)csc34)cc2)[nH]1)C(C)C (stereo partly shown) [Compound A76]	< 0.001 µM	> 75 µM
COC(=O)N[C@H](C(=O)N1CCCC1c1ncc(-c2ccc(-c3csc4c(-c5cnc(C6CCCN6C(=O)[C@H](NC(=O)OC)C(C)C)[nH]5)csc34)cc2)[nH]1)C(C)C (stereo partly shown) [Compound A77]	< 0.001 µM	> 75 µM
COC(=O)N[C@H](C(=O)N1CCCC1c1ncc(-c2csc3c(-c4ccc(-c5cnc(C6CCCN6C(=O)[C@@H](NC(=O)OC)C(C)C)[nH]5)cc4)csc23)[nH]1)c1ccccc1 (stereo partly shown) [Compound A78]	< 0.001 µM	> 75 µM
COC(=O)N[C@@H](C(=O)N1CCC[C@H]1C(=O)Nc1ccc(-c2cn3cc(NC(=O)[C@@H]4CCCN4C(=O)[C@H](NC(=O)OC)c4ccccc4)nc3s2)cc1)c1ccccc1 [Compound A79]	< 0.001 µM	> 75 µM
COC(=O)N[C@@H](C(=O)N1CCC[C@H]1C(=O)Nc1ccc(C#Cc2cn3cc(NC(=O)[C@@H]4CCCN4C(=O)[C@H](NC(=O)OC)c4ccccc4)nc3s2)cc1)c1ccccc1 [Compound A80]	< 0.001 µM	> 75 µM
COC(=O)N[C@H](C(=O)N1CCC[C@H]1c1ncc(-c2csc3c(-c4cnc([C@@H]5CCCN5C(=O)[C@@H](NC(=O)OC)C(C)C)[nH]4)csc23)[nH]1)C(C)C [Compound A82, ((S)-1-{(S)-2-[5-(6-{2-[(S)-1-((S)-2-methoxycarbonylamino-3-methyl-butyryl)-pyrrolidin-2-yl]-3H-imidazol-4-yl}-thieno[3,2-b]thiophen-3-yl)-1H-imidazol-2-yl]-pyrrolidine-1-carbonyl}-2-methyl-propyl)-carbamic acid methyl ester]	< 0.001 µM	10 to 75 µM
COC(=O)N[C@H](C(=O)N1CCC[C@H]1c1ncc(C#Cc2csc3c(-c4ccc(-c5cnc([C@@H]6CCCN6C(=O)[C@@H](NC(=O)OC)C(C)C)[nH]5)cc4)csc23)[nH]1)C(C)C [Compound A84, [(S)-1-((S)-2-{4-[4-(6-{2-[(S)-1-((S)-2-methoxycarbonylamino-3-methyl-butyryl)-pyrrolidin-2-yl]-3H-imidazol-4-ylethynyl}-thieno[3,2-b]thiophen-3-yl)-phenyl]-1H-imidazol-2-yl}-pyrrolidine-1-carbonyl)-2-methyl-propyl]-carbamic acid methyl ester]	< 0.001 µM	> 75 µM
COC(=O)N[C@H](C(=O)N1CCCC1c1cc(-c2ccc(-c3csc4c(-c5ccc(-c6cnc(C7CCCN7C(=O)[C@@H](NC(=O)OC)C(C)C)[nH]6)cc5)csc34)cc2)[nH]n1)C(C)C (stereo partly shown) [Compound A87]	< 0.001 µM	> 75 µM
COC(=O)N[C@H](C(=O)N1CCCC1c1nc(-c2ccc(-c3cn4cc(-c5ccc(-c6cnc([C@@H]7CCCN7C(=O)[C@@H](NC(=O)OC)C(C)C)[nH]6)cc5)sc4n3)cc2)c[nH]1)C(C)C (stereo partly shown) [Compound A93]	< 0.001 µM	> 75 µM
COC(=O)N[C@H](C(=O)N1CCCC1c1ncc(-c2ccc(-c3csc4c(-c5ccccc5)csc34)cc2)[nH]1)C(C)C (stereo partly shown) [Compound A103]	0.001 to 0.01 µM	10 to 75 µM
COC(=O)N[C@H](C(=O)N1CCCC1c1nc(-c2ccc(-c3sc4cc(-c5ccc(-c6cnc([C@@H]7CCCN7C(=O)[C@@H](NC(=O)OC)C(C)C)[nH]6)cc5)sc4c3-c3ccc(-c4cnc(C5CCCN5C(=O)[C@@H](NC(=O)OC)C(C)C)[nH]4)cc3)cc2)c[nH]1)C(C)C (stereo partly shown) [Compound A105]	0.01 to 0.1 µM	10 to 75 µM
CC(C)(C)OC(=O)N1CCCC1c1ncc(-c2ccc(-c3cn4ccsc4n3)cc2)[nH]1 (stereo not shown) [Compound A167]	> 0.1 µM	

From patent US20120252721A1 (priority 2011, published 2012)
